Each compound was assayed against Replicase polyprotein 1ab (Severe acute respiratory syndrome coronavirus 2, UniProt P0DTD1) (assay: Hit profiling assay with DTT).
For `N#CSc1cc(SC#N)c(N)nc1N` [PR-619], the IC50 was 4410 nM. Compound `CN1CCN(C(c2ccc(C(F)(F)F)cc2)c2ccc3cccnc3c2O)CC1` (configuration not stated) has an IC50 of 1340 nM. `CCOC(=O)Cc1ccc(-c2ccccc2)cc1` [Felbinac ethyl] gave an IC50 of 80 nM. Compound `Cn1sc(=O)n(Cc2ccccc2)c1=O` [4-Benzyl-2-methyl-1,2,4-thiadiazolidine-3,5-dione] has an IC50 of 140 nM. Work on `O=C1C=Cc2cc(Br)ccc2C1=O` [Bonaphthone] yielded an IC50 of 90 nM. `COC(=O)CC[C@H](NC(=O)[C@H](CC(=O)OC)NC(=O)OCc1ccccc1)C(=O)N[C@H](C(=O)N[C@@H](CC(=O)OC)C(=O)CF)C(C)C` [US9345789, Z-DEVD-FMK] showed an IC50 of 10 nM. For `Cc1c(-c2cnccn2)ssc1=S` [OLTIPRAZ], the IC50 was 110 nM.

— BindingDB's records for doi:10.1101/2020.12.16.422677 (Fraunhofer Institute for Translational Medicine and …, 2020)
